Test: in vitro release of trypan blue from alginate hydrogel disks with or without compression
Type: physicochemical
Method: In a first in vitro experiment, alginate hydrogels were prepared comprising 10 g PROTANAL, 4 mg trypan blue (Sigma Chemical) as a model drug molecule, and 63 mg CaSO4 (Sigma Chemical). The hydrogels were cut into disks of approximately 12.7 mm diameter and approximately 2 mm thick, and thereafter swollen overnight in the commercially available Dulbecco's Modified Eagle's Medium (DMEM). The hydrogel disks so prepared were next placed in custom-made sample holders of 13 mm diameter and 30 mm length. Porous stainless steel supports were provided on both the top and bottom of each hydrogel disk to permit release of the trypan blue drug during compression of the hydrogels.
The results of this first, in vitro experiment are shown in FIG. 1, which figure comprises an upper chart graphically depicting the mechanical stimulation cycle of compression/relaxation relative to a lower chart graphically depicting the release of the trypan blue drug from the mechanically stimulated hydrogels (line A). The control, non-compressed hydrogels are also depicted in this lower chart (line B).

- effect of compression on trypan blue release (compressed (A) versus non-compressed (B) hydrogels): did not significantly alter
- release of the trypan blue drug from the compressed hydrogels (compressed hydrogels (line A), three compression/relaxation cycles, 10% maximum compressive strain, DMEM-swollen): increased steadily
SMILES: Cc1cc(-c2ccc(/N=N/c3c(S(=O)(=O)O)cc4cc(S(=O)(=O)O)cc(N)c4c3O)c(C)c2)ccc1/N=N/c1c(S(=O)(=O)O)cc2cc(S(=O)(=O)O)cc(N)c2c1O [trypan blue]

— US6748954B2, “Drug release from polymer matrices through mechanical stimulation” (The Regents of The University of Michigan, priority 2000, dated 2004)
